Measured values from patent publication US5053070A, “Pyrimidine derivatives, preparation processes thereof, herbicide containing the same, and herbicidal compositions containing the same along with other active ingredient” (Mitsui Toatsu Chemicals, Incorporated, priority 1988, dated 1991).
Read-outs that look alike come from different tables or passages of the source.

Key:
Assay type in all cases: in vivo
redroot pigweed [1] = assay: Upland foliar application test by mixed formulations (Test 7); conditions: Amaranthus retroflexus, 720 h, read-out: Herbicidal effects (%) Redrood pigweed Ea
Description: (§1) Resin-made 1/10,000-are pots were filled with the soil of an upland field. Redroot pigweed, morningglories, johnsongrass, barnyardgrass and green foxtail were separately seeded and were allowed to germinate in a green house. When each plant grew to the stage of 2-3 leaves, an emulsion formulated from predetermined amounts of two test compounds of different kinds in a similar manner to the method described in Formulation Example 16 was diluted with water to a predetermined dilution rate and then sprayed at an application rate equal to 5 l per are onto the foliage of each plant by means of a pressure-operated ULV (ultra low volume) sprayer. Influence to the weeds were observed on the 30th day after the spray of the herbicides. In the table, each Ea means an acutally measured value of herbicidal activities when two kinds of herbicides were mixed. Each Ec is an expected value for herbicidal activities, calculated in accordance with the below-described calculation formula proposed by Colby et al. [Colby, S. R., Weed 15, 20-22 (1967)]. Ea>Ec indicates the existence of synergistic action while […] action. [formula] Ec: Growth inhibition rate (%) expected when Ingredient I and Ingredient II are mixed.
(§2) Ex: Growth inhibition rate (%) when treated with Ingredient I alone.
(§3) Ey: Growth inhibition rate (%) when treated with Ingredient II alone.

johnsongrass [2] = assay: as above; conditions: Sorghum halepense, 720 h; for pest or weed control at 300 g/ha: read-out: Herbicidal effects (%) Johnsongrass Ea, applied alone, 0.3 kg/ha, foliar, 30th day; for pest or weed control at 500 g/ha: read-out: Herbicidal effects (%) Johnsongrass Ea, applied alone, 0.5 kg/ha, foliar, 30th day
Description: as §1, §2, §3

redroot pigweed [3] = assay: Upland foliar application test by mixed formulations, concentration gradient (Test 8); conditions: Amaranthus retroflexus, 960 h, read-out: Herbicidal effects Redrood pigweed Ea
Description: (§4) Resin-made 1/10,000-are pots were filled with the soil of an upland field. Redroot pigweed and johnsongrass were separately seeded and were allowed to germinate in a green house. When each plant grew to the stage of 2-3 leaves, emulsions formulated with concentration gradient from predetermined amounts of two test compounds of different kinds in a similar manner to the method described in Formulation Example 16 was diluted with water to a predetermined dilution rate and then sprayed at an application rate equal to 5 l per are onto the foliage of each plant by means of a pressure-operated ULV (ultra low volume) sprayer. Influence to the weeds were observed on the 40th day after the spray of the herbicides. The results are shown in Table 9, In the table, Ea have the same meanings as in Test 7, and Ea>Ec indicates the existence of synergistic action while Ea<Ec indicates the existence of antagonistic action.

johnsongrass [4] = assay: as above; conditions: Sorghum halepense, 960 h, read-out: Herbicidal effects Johnsongrass Ea
Description: as §4

morningglories = assay: Upland foliar application test by mixed formulations (Test 7); conditions: Ipomoea, 720 h, read-out: Herbicidal effects (%) Morningglory Ea
Description: as §1, §2, §3

green foxtail = assay: as above; conditions: Setaria viridis, 720 h, read-out: Herbicidal effects (%) Green foxtail Ea
Description: as §1, §2, §3

barnyardgrass = assay: as above; conditions: Echinochloa crus-galli, 720 h, read-out: Herbicidal effects (%) Barnyardgrass Ea
Description: as §1, §2, §3

[5] = applied alone, 0.2 kg/ha, 30th day

CN(C)C(=O)Nc1ccc(Cl)c(Cl)c1 [diuron, 3-(3,4-dichlorophenyl)-1,1-dimethylurea]
pest or weed control at 300 g/ha (redroot pigweed [1]): 40% | pest or weed control at 300 g/ha (johnsongrass [2]): 10% | pest or weed control at 200 g/ha (redroot pigweed [3]): 30% | pest or weed control at 400 g/ha (redroot pigweed [3]): 70% | pest or weed control at 800 g/ha (redroot pigweed [3]): 85% | pest or weed control at 200 g/ha (johnsongrass [4]): 0% | pest or weed control at 400 g/ha (johnsongrass [4]): 10% | pest or weed control at 800 g/ha (johnsongrass [4]): 20%

CN(C)C(=O)Nc1cccc(C(F)(F)F)c1 [fluometuron, 1,1-dimethyl-3-(3-trifluoromethylphenyl)urea]
pest or weed control at 500 g/ha (redroot pigweed [1]): 30% | pest or weed control at 500 g/ha (johnsongrass [2]): 30% | pest or weed control at 200 g/ha (redroot pigweed [3]): 20% | pest or weed control at 400 g/ha (redroot pigweed [3]): 30% | pest or weed control at 800 g/ha (redroot pigweed [3]): 50% | pest or weed control at 200 g/ha (johnsongrass [4]): 0% | pest or weed control at 400 g/ha (johnsongrass [4]): 10% | pest or weed control at 800 g/ha (johnsongrass [4]): 20%

CON(C)C(=O)Nc1ccc(Cl)c(Cl)c1 [linuron, 3-(3,4-dichlorophenyl)-1-methoxy-1-methylurea]
pest or weed control at 300 g/ha (morningglories): 30% | pest or weed control at 300 g/ha (johnsongrass [2]): 10% | pest or weed control at 200 g/ha (redroot pigweed [3]): 40% | pest or weed control at 400 g/ha (redroot pigweed [3]): 70% | pest or weed control at 800 g/ha (redroot pigweed [3]): 85% | pest or weed control at 200 g/ha (johnsongrass [4]): 0% | pest or weed control at 400 g/ha (johnsongrass [4]): 10% | pest or weed control at 800 g/ha (johnsongrass [4]): 20%

CCc1cccc(C)c1N(C(=O)CCl)C(C)COC (stereo not shown) [metolachlor, 2-chloro-2'-ethyl-6'-methyl-N-(2-methoxy-1-methylethyl)acetanilide, reference compound]
pest or weed control at 1000 g/ha (green foxtail): 10% | pest or weed control at 1000 g/ha (redroot pigweed [1]): 40%

CSc1nnc(C(C)(C)C)c(=O)n1N [metribuzin, 4-amino-6-tert-butyl-3-methylthio-1,2,4-triazin-5(4H)-one, reference compound]
pest or weed control at 200 g/ha (green foxtail; [5]): 10% | pest or weed control at 200 g/ha (redroot pigweed [1]; [5]): 30%

O=C(O)c1ccccc1C(=O)Nc1cccc2ccccc12 [naptalam, 2-(1-naphthalenylaminocarbonyl)benzoic acid]
pest or weed control at 1000 g/ha (redroot pigweed [1]): 10% | pest or weed control at 1000 g/ha (johnsongrass [2]; read-out: Herbicidal effects (%) Johnsongrass Ea, applied alone, 1 kg/ha, foliar, 30th day): 10% | pest or weed control at 400 g/ha (redroot pigweed [3]): 0% | pest or weed control at 800 g/ha (redroot pigweed [3]): 10% | pest or weed control at 1600 g/ha (redroot pigweed [3]): 20% | pest or weed control at 400 g/ha (johnsongrass [4]): 0% | pest or weed control at 800 g/ha (johnsongrass [4]): 10% | pest or weed control at 1600 g/ha (johnsongrass [4]): 20%

CSc1nc(NC(C)C)nc(NC(C)C)n1 [prometryn, 2-methylthio-4,6-bis(isopropylamino)-1,3,5-triazine]
pest or weed control at 500 g/ha (morningglories): 30% | pest or weed control at 500 g/ha (johnsongrass [2]): 20% | pest or weed control at 200 g/ha (redroot pigweed [3]): 10% | pest or weed control at 400 g/ha (redroot pigweed [3]): 20% | pest or weed control at 800 g/ha (redroot pigweed [3]): 40% | pest or weed control at 200 g/ha (johnsongrass [4]): 0% | pest or weed control at 400 g/ha (johnsongrass [4]): 10% | pest or weed control at 800 g/ha (johnsongrass [4]): 20%

CCC(=O)Nc1ccc(Cl)c(Cl)c1 [propanil, N-(3,4-dichlorophenyl)propanamide]
pest or weed control at 3000 g/ha (barnyardgrass): 40% | pest or weed control at 3000 g/ha (johnsongrass [2]; read-out: Herbicidal effects (%) Johnsongrass Ea, applied alone, 3 kg/ha, foliar, 30th day): 10% | pest or weed control at 2000 g/ha (redroot pigweed [3]): 30% | pest or weed control at 4000 g/ha (redroot pigweed [3]): 70% | pest or weed control at 8000 g/ha (redroot pigweed [3]): 70% | pest or weed control at 2000 g/ha (johnsongrass [4]): 20% | pest or weed control at 4000 g/ha (johnsongrass [4]): 30% | pest or weed control at 8000 g/ha (johnsongrass [4]): 50%

CCC/C(=N\OCC)C1=C(O)CC(CC(C)SCC)CC1=O (stereo not shown) [sethoxydim, reference compound]
pest or weed control at 200 g/ha (green foxtail): 100% | pest or weed control at 200 g/ha (morningglories): 0% | pest or weed control at 200 g/ha (barnyardgrass): 0% | pest or weed control at 200 g/ha (redroot pigweed [1]): 0% | pest or weed control at 200 g/ha (johnsongrass [2]; read-out: Herbicidal effects (%) Johnsongrass Ea, applied alone, 0.2 kg/ha, foliar, 30th day): 95% | pest or weed control at 100 g/ha (redroot pigweed [3]): 0% | pest or weed control at 200 g/ha (redroot pigweed [3]): 0% | pest or weed control at 100 g/ha (johnsongrass [4]): 70% | pest or weed control at 200 g/ha (johnsongrass [4]): 85%
